# According to patent publication US20100152434A1, “Protein Kinase-binding Nucleosides and Associated Methods” (priority 2007, published 2010):
# Read-outs that look alike come from different tables or passages of the source.
# Key:
# RXF 393 = details: RXF 393
# MDA-MB-435 = details: MDA-MB-435
# HT29 = test: cells; details: Homo sapiens, HT-29, 48 h
# MCF7 = test: cells; details: Homo sapiens, MCF7, 48 h
# SK-MEL-5 = test: cells; details: Homo sapiens, SK-MEL-5, 48 h
# RPMI-8226 [1] = test: cells; details: Homo sapiens, RPMI-8226, 48 h
# RPMI-8226 [2] = test system: RPMI-8226
# HOP-62 = test: cells; details: Homo sapiens, HOP-62, 48 h
# TK-10 [3] = test system: TK-10
# UACC-62 = test: cells; details: Homo sapiens, UACC-62, 48 h
# OVCAR-4 = test: cells; details: Homo sapiens, OVCAR-4, 48 h
# TK-10 [4] = test: cells; details: Homo sapiens, TK-10, 48 h
# MALME-3M = test: cells; details: Homo sapiens, 48 h
# 788-0 = test: cells; details: Homo sapiens, 48 h
# BT-549 = test: cells; details: Homo sapiens, BT-549, 48 h
# [5] = Log10 Concentration −4.0, Molar
# [6] = Log10 Concentration −5.0, Molar
# [7] = Log10 Concentration −6.0, Molar
# [8] = Log10 Concentration −7.0, Molar
# [9] = Log10 Concentration −8.0, Molar
compound,measurement,setting,value
CCOC(=O)C[C@@H]1C(O[Si](C)(C)C(C)(C)C)[C@H](n2cnc3c(NC(=O)Nc4ccccc4)ncnc32)O[C@@H]1CNC(=O)NC (some centres unmarked) [Compound 10],TGI,RXF 393; 48 h,4.63E−6 Molar
same,Percent Growth,RXF 393; [5],−59%
same,Percent Growth,RXF 393; [6],−46%
same,Percent Growth,RXF 393; [7],92%
same,Percent Growth,RXF 393; [8],97%
same,Percent Growth,RXF 393; [9],99%
same,TGI,MDA-MB-435; 48 h,>1.00E−4 Molar
same,Percent Growth,MDA-MB-435; [5],8%
same,Percent Growth,MDA-MB-435; [6],40%
same,Percent Growth,MDA-MB-435; [7],89%
same,Percent Growth,MDA-MB-435; [8],92%
same,Percent Growth,MDA-MB-435; [9],95%
same,TGI,A549/ATCC; 48 h,1.92E−5 Molar
same,Percent Growth,A549/ATCC; [5],−58%
same,Percent Growth,A549/ATCC; [6],23%
same,Percent Growth,A549/ATCC; [7],94%
same,Percent Growth,A549/ATCC; [8],103%
same,Percent Growth,A549/ATCC; [9],102%
same,TGI,DU-145; 48 h,1.94E−5 Molar
same,Percent Growth,DU-145; [5],−59%
same,Percent Growth,DU-145; [6],24%
same,Percent Growth,DU-145; [7],110%
same,Percent Growth,DU-145; [8],123%
same,Percent Growth,DU-145; [9],110%
same,TGI,OVCAR-8; 48 h,7.72E−5 Molar
same,Percent Growth,OVCAR-8; [5],−4%
same,Percent Growth,OVCAR-8; [6],29%
same,Percent Growth,OVCAR-8; [7],98%
same,Percent Growth,OVCAR-8; [8],100%
same,Percent Growth,OVCAR-8; [9],99%
same,GI50,HT29,4.2 µM
same,CC50,HT29; read-out: LC50,> 100 µM
same,GI50,MCF7,3.42 µM
same,CC50,MCF7; read-out: LC50,> 100 µM
same,GI50,SK-MEL-5,4.34 µM
same,CC50,SK-MEL-5; read-out: LC50,> 100 µM
same,GI50,RPMI-8226 [1],1.09 µM
same,CC50,RPMI-8226 [1]; read-out: LC50,59 µM
same,TGI,RPMI-8226 [2]; 48 h,4.57E−6 Molar
same,Percent Growth,RPMI-8226 [2]; [5],−57%
same,Percent Growth,RPMI-8226 [2]; [6],−27%
same,Percent Growth,RPMI-8226 [2]; [7],53%
same,Percent Growth,RPMI-8226 [2]; [8],75%
same,Percent Growth,RPMI-8226 [2]; [9],77%
same,GI50,HOP-62,8.96 µM
same,CC50,HOP-62; read-out: LC50,73.1 µM
same,TGI,MDA-MB-231/ATCC; 48 h,4.13E−5 Molar
same,Percent Growth,MDA-MB-231/ATCC; [5],−13%
same,Percent Growth,MDA-MB-231/ATCC; [6],20%
same,Percent Growth,MDA-MB-231/ATCC; [7],94%
same,Percent Growth,MDA-MB-231/ATCC; [8],103%
same,Percent Growth,MDA-MB-231/ATCC; [9],101%
same,TGI,TK-10 [3]; 48 h,4.05E−5 Molar
same,Percent Growth,TK-10 [3]; [5],−38%
same,Percent Growth,TK-10 [3]; [6],59%
same,Percent Growth,TK-10 [3]; [7],105%
same,Percent Growth,TK-10 [3]; [8],103%
same,Percent Growth,TK-10 [3]; [9],98%
same,TGI,UO-31; 48 h,2.95E−5 Molar
same,Percent Growth,UO-31; [5],−69%
same,Percent Growth,UO-31; [6],61%
same,Percent Growth,UO-31; [7],82%
same,Percent Growth,UO-31; [8],87%
same,Percent Growth,UO-31; [9],87%
same,Percent Growth,HOP-92; [5],−61%
same,Percent Growth,HOP-92; [6],−32%
same,Percent Growth,HOP-92; [7],12%
same,Percent Growth,HOP-92; [8],−1%
same,Percent Growth,HOP-92; [9],4%
same,TGI,OVCAR-5; 48 h,>1.00E−4 Molar
same,Percent Growth,OVCAR-5; [5],27%
same,Percent Growth,OVCAR-5; [6],72%
same,Percent Growth,OVCAR-5; [7],95%
same,Percent Growth,OVCAR-5; [8],103%
same,Percent Growth,OVCAR-5; [9],104%
same,GI50,UACC-62,> 100 µM
same,CC50,UACC-62; read-out: LC50,> 100 µM
same,TGI,SF-539; 48 h,>1.00E−4 Molar
same,Percent Growth,SF-539; [5],17%
same,Percent Growth,SF-539; [6],29%
same,Percent Growth,SF-539; [7],103%
same,Percent Growth,SF-539; [8],91%
same,Percent Growth,SF-539; [9],97%
same,GI50,OVCAR-4,12.3 µM
same,CC50,OVCAR-4; read-out: LC50,> 100 µM
same,TGI,NCI-H23; 48 h,>1.00E−4 Molar
same,Percent Growth,NCI-H23; [5],36%
same,Percent Growth,NCI-H23; [6],65%
same,Percent Growth,NCI-H23; [7],100%
same,Percent Growth,NCI-H23; [8],100%
same,Percent Growth,NCI-H23; [9],101%
same,GI50,TK-10 [4],12.4 µM
same,CC50,TK-10 [4]; read-out: LC50,> 100 µM
same,GI50,MALME-3M,10.3 µM
same,CC50,MALME-3M; read-out: LC50,> 100 µM
same,TGI,M14; 48 h,1.16E−5 Molar
same,Percent Growth,M14; [5],−56%
same,Percent Growth,M14; [6],4%
same,Percent Growth,M14; [7],81%
same,Percent Growth,M14; [8],82%
same,Percent Growth,M14; [9],90%
same,GI50,788-0,2 µM
same,GI50,BT-549,> 100 µM
same,CC50,BT-549; read-out: LC50,> 100 µM
same,TGI,SNB-19; 48 h,>1.00E−4 Molar
same,Percent Growth,SNB-19; [5],12%
same,Percent Growth,SNB-19; [6],82%
same,Percent Growth,SNB-19; [7],87%
same,Percent Growth,SNB-19; [8],95%
same,Percent Growth,SNB-19; [9],92%
